This note sets out measurements from publication PMC9468336, “The choanoflagellate pore-forming lectin SaroL-1 punches holes in cancer cells by targeting the tumor-related glycosphingolipid Gb3” (Communications Biology, 2022).

Read-outs that look alike come from different tables or passages of the source.

The target of series [1] is T1, SaroL-1 (Salpingoeca rosetta, UniProt F2UID9).
T1 construct: gene PTSG_08235; monomeric in solution
Nature of the series: Isothermal titration calorimetry (MicroCal iTC200) at 25 °C in 20 mM Tris/HCl pH 7.5, 100 mM NaCl, ligand titrated into SaroL-1, one-site model with stoichiometry N fixed to 3. In kind it is binding. As to the method: Isothermal Titration Calorimetry (ITC)
ITC experiments were performed with MicroCaliTC200 (Malvern Panalytical). Experiments were carried out at 25 °C ± 0.1 °C. SaroL-1 and ligands samples were prepared in Buffer A. The ITC cell contained SaroL-1 in a concentration range from 0.05 mM to 0.16 mM. The syringe contained the ligand solutions in a concentration from 10 to 50 mM. 2 μL of ligands solutions were injected into the sample cell at intervals of 120 s while stirring at 750 rpm. Integrated heat effects were analysed by nonlinear regression using one site binding model (MicroCal PEAQ-ITC Analysis software). The experimental data were fitted to a theoretical curve, which gave the dissociation constant (Kd) and the enthalpy of binding (∆H).
(In general: Isothermal titration calorimetry measures the heat released or taken up as one component is titrated into another.)

Series [2] concerns the target T2, hemolytic activity of SaroL-1 on rabbit erythrocytes (Salpingoeca rosetta, UniProt F2UID9).
T2 sequence (F2UID9 1-329): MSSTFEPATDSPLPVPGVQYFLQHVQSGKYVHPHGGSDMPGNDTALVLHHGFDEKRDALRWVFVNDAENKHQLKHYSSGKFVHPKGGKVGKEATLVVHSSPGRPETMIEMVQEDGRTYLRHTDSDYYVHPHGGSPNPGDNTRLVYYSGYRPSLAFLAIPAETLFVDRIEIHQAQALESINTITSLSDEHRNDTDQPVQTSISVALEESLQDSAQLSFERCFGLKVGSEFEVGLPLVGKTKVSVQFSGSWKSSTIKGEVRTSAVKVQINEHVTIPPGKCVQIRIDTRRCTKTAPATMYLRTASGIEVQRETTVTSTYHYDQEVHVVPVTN
Nature of the series: Inhibition of hemolytic activity (IHA) of SaroL-1 by carbohydrates. In kind it is cell-based. The settings on record: for inhibition: SaroL-1 217 nM, read-out: Mean % inhibition of hemolysis. As to the method:
(§1) Both HA and IHA assays were performed in U-shaped 96-well microtiter plates. In both cases, a control negative experiment was performed with Buffer A added to erythrocyte solution (2% final concentration), and the resulting value was subtracted from all data.
(§2) IHA was performed in U-shaped 96-well microtiter plates. […] 4% rabbit erythrocytes were added to the mixture in a 1:1 ratio and incubated for 1–2 h at 37 °C. The samples were centrifuged, 2600 × g for 15 min at RT, and the absorbance of the supernatant was measured at 540 nm by a Tecan reader.

For series [3], the target named is T1, SaroL-1. Nature of the series: Inhibition of SaroL-1 (217 nM) induced hemolysis of rabbit erythrocytes after 1 h pre-incubation of lectin with sugar at RT, then 1-2 h at 37 °C, absorbance of supernatant at 540 nm. The series is classed as cell-based. The settings on record: n = 2. As to the method: Hemolytic assay (HA) and inhibition of hemolytic activity (IHA)
as §1, §2

Series [4] deals with SaroL-1. Nature of the series: Isothermal titration calorimetry of galactosyl-ligands with SaroL-1. The settings on record: ITC. In kind it is binding, Salpingoeca rosetta.

The compound `CC(=O)N[C@H]1C(O)O[C@H](CO)[C@H](O)[C@@H]1O` (stereo partly shown) [GalNAc, N-acetylgalactosamine] had a Kd in series [1] of 2760 µM. For the same compound, the inhibition in series [2] (sugar 0.003 mM) came out at 3.76%; in series [2] (sugar 0.006 mM) it was 7.37%; in series [2] (sugar 0.0125 mM), 8.89%; in series [2] (sugar 0.025 mM) it was 4%; in series [2] (sugar 0.05 mM) it was 2.33%; in series [2] (sugar 0.1 mM), 6.61%. In addition, the inhibition in series [2] (sugar 0.2 mM) came to 6.57%; in series [2] (sugar 0.4 mM), 9.48%; in series [2] (sugar 0.8 mM), 14.5%; in series [2] (sugar 1.6 mM), 27.3%; in series [2] (sugar 3.125 mM), 42.5%; in series [2] (sugar 6.25 mM), 64%. The figures for the inhibition in series [2] (sugar 12.5 mM), in series [2] (sugar 25 mM) and in series [2] (sugar 50 mM) were 83.1%, 98.8% and 100%, respectively. In series [3], this compound returned an IC50 of 4900 µM.

In turn, `CO[C@H]1O[C@H](CO)[C@H](O)[C@H](O)[C@H]1O` [GalαOMe, α-methyl galactoside] showed a Kd in series [1] of 2170 µM. This counts as millimolar.

In the case of `OC[C@H]1O[C@@H](O[C@H]2[C@H](O)[C@@H](O)[C@H](O)O[C@@H]2CO)[C@H](O)[C@@H](O)[C@H]1O` [Lactose, lactose], the IC50 in series [2] (SaroL-1 217 nM pre-incubated with carbohydrate, read-out: IC50 of inhibition of hemolysis) is 11900 µM. Moreover, the “binding to SaroL-1 (in words)” value in series [4] is “very weak binding”.

In the case of `OC[C@H]1O[C@H](OCC2O[C@@H](O)[C@H](O)[C@@H](O)[C@@H]2O)[C@H](O)[C@@H](O)[C@H]1O` (stereo partly shown) [melibiose], the “inhibition of hemolysis (in words)” value in series [2] (10 mM carbohydrate) is recorded as “complete inhibition”. Further, the inhibition in series [2] (sugar 0.003 mM) was found to be 0.665%; in series [2] (sugar 0.006 mM), 2.27%; in series [2] (sugar 0.0125 mM), 3.73%; in series [2] (sugar 0.025 mM) it was 7.43%; in series [2] (sugar 0.05 mM), 7.01%; in series [2] (sugar 0.1 mM), 9.7%. Besides, the inhibition in series [2] (sugar 0.2 mM) amounted to 15.2%; in series [2] (sugar 0.4 mM), 22.7%; in series [2] (sugar 0.8 mM) it was 36.1%; in series [2] (sugar 1.6 mM), 54.5%; in series [2] (sugar 3.125 mM) it was 76.3%; in series [2] (sugar 6.25 mM) it was 91.8%. In addition, the inhibition in series [2] (sugar 12.5 mM), in series [2] (sugar 25 mM) and in series [2] (sugar 50 mM) was 100% throughout.

In series [1], `OC[C@H]1O[C@H](O[C@H]2[C@@H](O)[C@@H](CO)OC(O)[C@@H]2O)[C@H](O)[C@@H](O)[C@H]1O` (stereo partly drawn) [αGal1-3Gal, α-D-galactopyranosyl-(1-3)-D-galactose] returned a Kd of 1380 µM. That is a millimolar value.

Usually Kd stands for the concentration at which binding is half-saturated. The term inhibition denotes the change of the read-out against control, counted positive when it falls. In general, IC50 refers to the concentration that inhibits the measured activity by half.
